Columns and labels:
PMP22 [1] = assay: PMP22 expression in S16 Schwann cells, quantitative rtPCR; type: cell-based; settings: for PMP22 P1 relative level of expression / PMP22 P2 relative level of expression: 24 h, S16 Schwann cells, relative to untreated control, normalized to 18S rRNA, ± S.D.; for RQ (Relative Quantity) PMP22-P1 / RQ (Relative Quantity) PMP22-P2: normalized to beta-actin, untreated = 1.000
Protocol: To determine if proteasome inhibitors affect endogenous PMP22 expression, quantitative rtPCR was utilized to measure the abundance of PMP22 mRNA transcript in the S16 Schwann cells, which were plated in 6 well plates and treated with each compound at the indicated concentrations. After 24 h., the cells were harvested to purify RNA, 1 μg of which was converted into cDNA. Quantitative rtPCR was performed in either SYBR green-based reactions or Taqman-based customized 384-well micro fluidic arrays using a ViiA7 system or StepOne Plus (Applied Biosystems). Abundance of gene expression was first normalized to beta-actin (ActB, NM_031144.2) or 18 S rRNA, which served as an endogenous loading control across samples, and then determined relative to the untreated sample for each gene using the comparative Ct method described by K. J. Livak and T. D. Schmittgen (Analysis of relative gene expression data using real-time quantitative PCR and the 2^ΔΔCT method. Methods, 2001, 25, 402-408).
S16 Schwann cells were treated with indicated proteasome inhibitors for 24 h. RNA was prepared and analyzed by quantitative rtPCR using promoter specific primers for PMP22 (labeled P1 and P2). Relative levels of expression are shown relative to untreated control cells. Values are normalized to 18S rRNA. Errors reflect the standard deviation (S.D.) of technical duplicates.
RQ=Relative Quantity, normalized to beta-actin

PMP22 [2] = assay: PMP22 expression in sciatic nerve of CMT1A rats, quantitative rtPCR; type: in vivo, rat; settings: vehicle = 1.00, ± SEM
Text: Abundance of gene expression could be determined relative to an untreated sample for each gene using the comparative Ct method as described in the procedure published by K. J. Livak and T. D. Schmittgen (Analysis of relative gene expression data using real-time quantitative PCR and the 2^ΔΔCT method. Methods, 2001, 25, 402-408).
Changes in the expression of peripheral and central nervous system gene makers (including myelin markers such as PMP22, P0, and Myelin Basic Protein) were followed after proteasome inhibitor administration, and a reduction of PMP22 expression was observed. Changes in PMP22 gene expression were correlated with measures of neurological function that are used to measure the CMT1A neuropathy. These measures of neurological function included measures of motor coordination, nerve conduction velocity, and histology of femoral motor and sensory nerves. Relevant measures of CMT1A function have been outlined by J. C. Noreel and co-authors (Behavioural profiling of a murine Charcot-Marie-Tooth disease type 1A model. Eur. J. Neurosci. 2001, 13, 1625-1634).
Bortezomib was administered subcutaneously (s.c.) at a dose equivalent to 0.1 mg substance/kg of body weight, using an injection concentration of 2.5 mg of substance/ml. RNA was purified from sciatic nerve at 7 d post-injection. […] Errors indicate the standard error of the mean (SEM).
Oprozomib (ONX-0912) was administered at the indicated doses by oral gavage and RNA was purified from sciatic nerve at 7 d. […] Errors indicate SEM. Vehicle was 10% EtOH, 10% Tween80, 80% 10 mM citrate buffer pH=3.5 (see; Zhou, H-J. et al., Design and Synthesis of an Orally Bioavailable and Selective Peptide Epoxyketone Proteasome Inhibitor (PR-047). J. Med. Chem., 2009, 52, 3028-3038).

human PMP22 gene = assay: Orthogonal reporter assays (firefly luciferase or β-lactamase coupled to the intronic regulatory element of the human PMP22 gene); type: cell-based; settings: targeted screening, firefly luciferase and β-lactamase reporters
Text: A cross-validating pair of orthogonal reporter assays, which employ either firefly luciferase or β-lactamase coupled to the intronic regulatory element of the human PMP22 gene, were used to measure CMT1A PMP22 overexpression as a means of identifying transcriptional inhibitors with therapeutic value toward CMT1A. […] A description of assays and methods used to identify compounds has been provided by S-W Jang and co-authors (Identification of drug modulators targeting gene-dosage disease. ACS Chem Biol., 2012, 7, 1205-1213).

PMP22 [3] = assay: Effect on PMP22 expression in mice after a single s.c. injection; type: in vivo; settings: 10 mg/kg, n = 4, vehicle printed 0.739 ± 0.07
Text: MLN9708. Anatomical areas of subcutaneous administration could include the right or left thigh, or abdomen. The same anatomical area can be used for repeated administration. However, injections are typically to be rotated between sites (see; Fledrich, R. M. et al., Murine therapeutic models for Charcot-Marie-Tooth (CMT) disease. British Medical Bulletin, 2012, 102, 89-113).

[4] = 0.1 mg/kg s.c., sciatic nerve, 7 d post-injection, n = 9
[5] = 10 mg/kg oral gavage, sciatic nerve at 7 d, n = 7
[6] = 30 mg/kg oral gavage, sciatic nerve at 7 d, n = 7

## CC(C)C[C@H](NC(=O)CNC(=O)c1cc(Cl)ccc1Cl)B(O)O [MLN2238, (R)-1-(2-(2,5-dichlorobenzamido)acetamido)-3-methylbutylboronic acid]
PMP22 [1]; 25 nM
  PMP22 P1 relative level of expression: 1.177 ± 0.42
  PMP22 P2 relative level of expression: 0.837 ± 0.041
PMP22 [1]; 50 nM
  PMP22 P1 relative level of expression: 0.826 ± 0.225
  PMP22 P2 relative level of expression: 0.865 ± 0.141
PMP22 [1]; 100 nM
  PMP22 P1 relative level of expression: 0.005 ± 0.0005
  PMP22 P2 relative level of expression: 0.020 ± 0.005
PMP22 [1]; 1 μM
  PMP22 P1 relative level of expression: 0.003 ± 0.0007
  PMP22 P2 relative level of expression: 0.022 ± 0.0026
PMP22 [1]; 10 μM
  PMP22 P1 relative level of expression: 0.007 ± 0.00003
  PMP22 P2 relative level of expression: 0.018 ± 0.0123

## CC(C)C[C@H](NC(=O)[C@H](Cc1ccccc1)NC(=O)c1cnccn1)B(O)O [Bortezomib, [(1R)-3-methyl-1-({(2S)-3-phenyl-2-[(pyrazin-2-ylcarbonyl)amino]propanoyl}amino)butyl]boronic acid]
PMP22 [2]; [4]
  PMP22 P1 relative level: 0.675 ± 0.17
  PMP22 P2 relative level: 0.4 ± 0.07
  Total PMP22 relative level: 0.3 ± 0.05
PMP22 [1]; 10 nM
  RQ (Relative Quantity) PMP22-P1: 0.517
  RQ (Relative Quantity) PMP22-P2: 0.809
PMP22 [1]; 100 nM
  RQ (Relative Quantity) PMP22-P1: 0.032
  RQ (Relative Quantity) PMP22-P2: 0.153
PMP22 [1]; 1 μM
  RQ (Relative Quantity) PMP22-P1: 0.041
  RQ (Relative Quantity) PMP22-P2: 0.232
PMP22 [1]; 10 μM
  RQ (Relative Quantity) PMP22-P1: 0.077
  RQ (Relative Quantity) PMP22-P2: 0.285
Human PMP22 gene
  Effect on CMT1A PMP22 overexpression in reporter assays: selectively reducing CMT1A expression

## CC(C)C[C@H](NC(=O)[C@H](CCc1ccccc1)NC(=O)CN1CCOCC1)C(=O)N[C@@H](Cc1ccccc1)C(=O)N[C@@H](CC(C)C)C(=O)[C@@]1(C)CO1 [Carfilzomib, (S)-4-nethyl-N-((S)-1-(((S)-4-methyl-1-((R)-2-methyloxiran-2-yl)-1-oxopentan-2-yl)amino)-1-oxo-3-phenylpropan-2-yl)-2-((S)-2-(2-morpholinoacetamido)-4-phenylbutanamido)pentanamide]
PMP22 [1]; 1 nM
  PMP22 P1 relative level of expression: 0.003 ± 0.0004
  PMP22 P2 relative level of expression: 0.012 ± 0.004
PMP22 [1]; 2.5 nM
  PMP22 P1 relative level of expression: 0.006 ± 0.0005
  PMP22 P2 relative level of expression: 0.027 ± 0.0037
PMP22 [1]; 5 nM
  PMP22 P1 relative level of expression: 0.006 ± 0.0019
  PMP22 P2 relative level of expression: 0.037 ± 0.00026
PMP22 [1]; 10 nM
  PMP22 P1 relative level of expression: 0.014 ± 0.0007
  PMP22 P2 relative level of expression: 0.046 ± 0.0022
PMP22 [1]; 100 nM
  PMP22 P1 relative level of expression: 0.009 ± 0.0055
  PMP22 P2 relative level of expression: 0.027 ± 0.017
PMP22 [1]; 1 μM
  PMP22 P1 relative level of expression: 0.008 ± 0.0024
  PMP22 P2 relative level of expression: 0.036 ± 0.0049

## COC[C@H](NC(=O)c1cnc(C)s1)C(=O)N[C@@H](COC)C(=O)N[C@@H](Cc1ccccc1)C(=O)[C@@]1(C)CO1 [Oprozomib, O-methyl-N-[(2-methyl-5-thiazolyl)carbonyl]-L-seryl-O-methyl-N-[(1S)-2-[(2R)-2-methyl-2-oxiranyl]-2-oxo-1-(phenylmethyl)ethyl]-L-serinamide]
PMP22 [2]; [5]
  PMP22 P1 relative level: 0.46 ± 0.15
  PMP22 P2 relative level: 3.1 ± 0.9
  Total PMP22 relative level: 0.62 ± 0.17
PMP22 [2]; [6]
  PMP22 P1 relative level: 0.46 ± 0.1
  PMP22 P2 relative level: 1.87 ± 0.77
  Total PMP22 relative level: 0.61 ± 0.07

## CC(C)C[C@H](NC(=O)CNC(=O)c1cc(Cl)ccc1Cl)B1OC(=O)CC(CC(=O)O)(C(=O)O)O1 (stereo partly drawn) [MLN9708, 4-(carboxymethyl)-2-((R)-1-(2-(2,5-dichlorobenzamido)acetamido)-3-methylbutyl)-6-oxo-1,3,2-dioxaborinane-4-carboxylic acid]
PMP22 [3]
  Total PMP22 relative level: 1.00 ± 0.09
